{"source": "patent US20240115549A1", "about": "“TREATMENT OF MENTAL DISORDERS” (GH Research Ireland Limited, priority 2022, published 2024)", "test_system": "patients with postpartum depression (PPD)", "experiment": "Clinical trial of inhaled 5-MeO-DMT in patients with postpartum depression", "format": "in vivo, human", "conditions": "individual PPD patient", "note": "Values joined by “and” are separate entries in the source; they are usually repeats but may differ in a detail not shown here. Equal entries are not always repeated. “Also recorded” adds a separate entry of the source."}
{"compound": "COc1ccc2[nH]cc(CCN(C)C)c2c1", "note": "[5-MeO-DMT]", "values": [{"measurement": "Reported adverse events", "value": "mild, short-lasting and resolved spontaneously"}, {"measurement": "Standard criteria for MADRS response (>=50% improvement) and remission (total <=10)", "value": "fulfilled"}, {"measurement": "Tolerability of inhalation procedure / regimen", "setting": "6 mg then 12 mg", "value": "well tolerated with no inhalation-related adverse events; also recorded: well tolerated"}, {"measurement": "MADRS apparent sadness improvement", "setting": "2 h", "value": "5 and 4"}, {"measurement": "MADRS apparent sadness score", "setting": "2 h", "value": 0}, {"measurement": "MADRS concentration difficulties improvement", "setting": "2 h", "value": "0 and 4"}, {"measurement": "MADRS concentration difficulties score", "setting": "2 h", "value": 0}, {"measurement": "MADRS inability to feel improvement", "setting": "2 h", "value": "3 and 4"}, {"measurement": "MADRS inability to feel score", "setting": "2 h", "value": 0}, {"measurement": "MADRS inner tension improvement", "setting": "2 h", "value": "5 and 4"}, {"measurement": "MADRS inner tension score", "setting": "2 h", "value": 0}, {"measurement": "MADRS lassitude improvement", "setting": "2 h", "value": "3 and 4"}, {"measurement": "MADRS lassitude score", "setting": "2 h", "value": 0}, {"measurement": "MADRS pessimistic thoughts improvement", "setting": "2 h", "value": 4}, {"measurement": "MADRS pessimistic thoughts score", "setting": "2 h", "value": 0}, {"measurement": "MADRS reduced appetite improvement", "setting": "2 h", "value": "0 and 6"}, {"measurement": "MADRS reduced appetite score", "setting": "2 h", "value": 0}, {"measurement": "MADRS reduced sleep improvement", "setting": "2 h", "value": 0}, {"measurement": "MADRS reported sadness improvement", "setting": "2 h", "value": "4 and 5"}, {"measurement": "MADRS reported sadness score", "setting": "2 h", "value": 0}, {"measurement": "MADRS suicidal thoughts improvement", "setting": "2 h", "value": "0 and 1"}, {"measurement": "MADRS suicidal thoughts score", "setting": "2 h", "value": 0}, {"measurement": "MADRS reduced sleep score", "setting": "2 h (baseline carried forward)", "value": 5}, {"measurement": "BPRS anxiety improvement", "setting": "Day 1", "value": "6 and 5"}, {"measurement": "BPRS anxiety score", "setting": "Day 1", "value": 1}, {"measurement": "BPRS blunted affect improvement", "setting": "Day 1", "value": "0 and 4"}, {"measurement": "BPRS blunted affect score", "setting": "Day 1", "value": 1}, {"measurement": "BPRS conceptual disorganization improvement", "setting": "Day 1", "value": "0 and 3"}, {"measurement": "BPRS conceptual disorganization score", "setting": "Day 1", "value": 1}, {"measurement": "BPRS depressive mood improvement", "setting": "Day 1", "value": "5 and 4"}, {"measurement": "BPRS depressive mood score", "setting": "Day 1", "value": 1}, {"measurement": "BPRS disorientation improvement", "setting": "Day 1", "value": 0}, {"measurement": "BPRS disorientation score", "setting": "Day 1", "value": 1}, {"measurement": "BPRS emotional withdrawal improvement", "setting": "Day 1", "value": "4 and 5"}, {"measurement": "BPRS emotional withdrawal score", "setting": "Day 1", "value": 1}, {"measurement": "BPRS excitement improvement", "setting": "Day 1", "value": "1 and 0"}, {"measurement": "BPRS excitement score", "setting": "Day 1", "value": 1}, {"measurement": "BPRS grandiosity improvement", "setting": "Day 1", "value": 0}, {"measurement": "BPRS grandiosity score", "setting": "Day 1", "value": 1}, {"measurement": "BPRS guilt feelings improvement", "setting": "Day 1", "value": 5}, {"measurement": "BPRS guilt feelings score", "setting": "Day 1", "value": 1}, {"measurement": "BPRS hallucinatory behaviour improvement", "setting": "Day 1", "value": 0}, {"measurement": "BPRS hallucinatory behaviour score", "setting": "Day 1", "value": 1}, {"measurement": "BPRS hostility improvement", "setting": "Day 1", "value": "0 and 3"}, {"measurement": "BPRS hostility score", "setting": "Day 1", "value": 1}, {"measurement": "BPRS mannerisms and posturing improvement", "setting": "Day 1", "value": 0}, {"measurement": "BPRS mannerisms and posturing score", "setting": "Day 1", "value": 1}, {"measurement": "BPRS motor retardation improvement", "setting": "Day 1", "value": "0 and 2"}, {"measurement": "BPRS motor retardation score", "setting": "Day 1", "value": 1}, {"measurement": "BPRS somatic concern improvement", "setting": "Day 1", "value": "5 and 0"}, {"measurement": "BPRS somatic concern score", "setting": "Day 1", "value": 1}, {"measurement": "BPRS suspiciousness improvement", "setting": "Day 1", "value": 0}, {"measurement": "BPRS suspiciousness score", "setting": "Day 1", "value": 1}, {"measurement": "BPRS tension improvement", "setting": "Day 1", "value": "5 and 3"}, {"measurement": "BPRS tension score", "setting": "Day 1", "value": 1}, {"measurement": "BPRS uncooperativeness improvement", "setting": "Day 1", "value": 0}, {"measurement": "BPRS uncooperativeness score", "setting": "Day 1", "value": 1}, {"measurement": "BPRS unusual thought content improvement", "setting": "Day 1", "value": 0}, {"measurement": "BPRS unusual thought content score", "setting": "Day 1", "value": 1}, {"measurement": "MADRS apparent sadness improvement", "setting": "Day 1", "value": "5 and 4"}, {"measurement": "MADRS apparent sadness score", "setting": "Day 1", "value": 0}, {"measurement": "MADRS concentration difficulties improvement", "setting": "Day 1", "value": "0 and 4"}, {"measurement": "MADRS concentration difficulties score", "setting": "Day 1", "value": 0}, {"measurement": "MADRS inability to feel improvement", "setting": "Day 1", "value": "3 and 4"}, {"measurement": "MADRS inability to feel score", "setting": "Day 1", "value": 0}, {"measurement": "MADRS inner tension improvement", "setting": "Day 1", "value": "5 and 4"}, {"measurement": "MADRS inner tension score", "setting": "Day 1", "value": 0}, {"measurement": "MADRS lassitude improvement", "setting": "Day 1", "value": "3 and 4"}, {"measurement": "MADRS lassitude score", "setting": "Day 1", "value": 0}, {"measurement": "MADRS pessimistic thoughts improvement", "setting": "Day 1", "value": 4}, {"measurement": "MADRS pessimistic thoughts score", "setting": "Day 1", "value": 0}, {"measurement": "MADRS reduced appetite improvement", "setting": "Day 1", "value": "0 and 6"}, {"measurement": "MADRS reduced appetite score", "setting": "Day 1", "value": 0}, {"measurement": "MADRS reduced sleep improvement", "setting": "Day 1", "value": 5}, {"measurement": "MADRS reduced sleep score", "setting": "Day 1", "value": 0}, {"measurement": "MADRS reported sadness improvement", "setting": "Day 1", "value": "4 and 5"}, {"measurement": "MADRS reported sadness score", "setting": "Day 1", "value": 0}, {"measurement": "MADRS suicidal thoughts improvement", "setting": "Day 1", "value": "0 and 1"}, {"measurement": "MADRS suicidal thoughts score", "setting": "Day 1", "value": 0}, {"measurement": "BIMF TOTAL score", "setting": "Day 7", "value": "105 and 104"}, {"measurement": "BIMF item 1 (I am a good mother) score", "setting": "Day 7", "value": "6 and 5"}, {"measurement": "BIMF item 2 (I feel rested) score", "setting": "Day 7", "value": "2 and 4"}, {"measurement": "BIMF item 3 (comfortable with the way I've chosen to feed my baby) score", "setting": "Day 7", "value": 6}, {"measurement": "BIMF item 4 (My baby and I understand each other) score", "setting": "Day 7", "value": "5 and 6"}, {"measurement": "BIMF item 5 (able to relax and enjoy time with my baby) score", "setting": "Day 7", "value": 6}, {"measurement": "BIMF item 6 (people I can trust to care for my baby when I need a break) score", "setting": "Day 7", "value": "6 and 5"}, {"measurement": "BIMF item 8 (getting enough adult interaction) score", "setting": "Day 7", "value": "6 and 4"}, {"measurement": "BIMF item 9 (getting enough encouragement from other people) score", "setting": "Day 7", "value": "6 and 5"}, {"measurement": "BIMF item 10 (I trust my own feelings (instincts)) score", "setting": "Day 7", "value": 6}, {"measurement": "BIMF item 11 (a little time each week to do something for myself) score", "setting": "Day 7", "value": "6 and 4"}, {"measurement": "BIMF item 12 (taking good care of my baby's physical needs) score", "setting": "Day 7", "value": 6}, {"measurement": "BIMF item 13 (taking good care of my physical needs) score", "setting": "Day 7", "value": 5}, {"measurement": "BIMF item 14 (good decisions about my baby's health and well being) score", "setting": "Day 7", "value": 6}, {"measurement": "BIMF item 15 (My baby and I are getting into a routine) score", "setting": "Day 7", "value": "6 and 5"}, {"measurement": "BIMF item 16 (I worry about how other people judge me) score", "setting": "Day 7", "value": 5}, {"measurement": "BIMF item 17 (able to take care of my baby and my other responsibilities) score", "setting": "Day 7", "value": 5}, {"measurement": "BIMF item 18 (Anxiety or worry often interferes with my mothering ability) score", "setting": "Day 7", "value": 5}, {"measurement": "BIMF item 19 (getting better at taking care of my baby) score", "setting": "Day 7", "value": "1 and 6"}, {"measurement": "BIMF item 20 (satisfied with the job I am doing as a new mother) score", "setting": "Day 7", "value": 5}, {"measurement": "BIMF total score improvement, percent", "setting": "Day 7", "value": "14% and over 40%"}, {"measurement": "BPRS anxiety improvement", "setting": "Day 7", "value": "6 and 5"}, {"measurement": "BPRS anxiety score", "setting": "Day 7", "value": 1}, {"measurement": "BPRS blunted affect improvement", "setting": "Day 7", "value": "0 and 4"}, {"measurement": "BPRS blunted affect score", "setting": "Day 7", "value": 1}, {"measurement": "BPRS conceptual disorganization improvement", "setting": "Day 7", "value": "0 and 3"}, {"measurement": "BPRS conceptual disorganization score", "setting": "Day 7", "value": 1}, {"measurement": "BPRS depressive mood improvement", "setting": "Day 7", "value": "5 and 4"}, {"measurement": "BPRS depressive mood score", "setting": "Day 7", "value": 1}, {"measurement": "BPRS disorientation improvement", "setting": "Day 7", "value": 0}, {"measurement": "BPRS disorientation score", "setting": "Day 7", "value": 1}, {"measurement": "BPRS emotional withdrawal improvement", "setting": "Day 7", "value": "4 and 5"}]}
